For two compounds, viability, T/C and IC50 results are on record in PubChem BioAssay AID1963862 (Molecular Pharmacology Branch, DTP, NCI, 2024).

This assay deals with KRAS patient-derived spheroids with HUVEC/MSC, viability. Put plainly: Anticancer human tumor 941728-121-R-J1-PDC patient-derived lung adenocarcinoma cell line growth inhibition [KRAS2]. As to conditions: for viability, T/C: stronger effect = lower value; for IC50: curve of first compound. In short, it runs like this: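 Combination screen of spheroid viability in tumor-cell co-cultures with endothelial (HUVEC) and mesenchymal stem cell stroma. Each agent was tested in half-log dilutions, topping at clinical Cmax or at 10 microM without a known Cmax.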
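Also: spheroids exposed to agents for seven days before readout.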

Take `CC(=O)OC12COC1CC(O)C1(C)C(=O)C(O)C3=C(C)C(OC(=O)C(O)C(NC(=O)OC(C)(C)C)c4ccccc4)CC(O)(C(OC(=O)c4ccccc4)C21)C3(C)C` (stereo unspecified): the viability, T/C (compound 0.01 µM) is 53% [middle of 5 runs]; the viability, T/C (compound 0.0316 µM) was 46.3% [middle of 5 runs]; the viability, T/C (compound 0.1 µM) is 46.2% [middle of 5 runs]; the viability, T/C (compound 0.316 µM) is 46.5% [middle of 5 runs]; the viability, T/C (compound 1 µM) is 53.8% [middle of 5 runs]; the viability, T/C (compound 3.16 µM) was 55.1% [middle of 5 runs].

For the compound `O=C(c1cc(Cc2n[nH]c(=O)c3ccccc23)ccc1F)N1CCN(C(=O)C2CC2)CC1` + CNCc1ccccc1-c1csc(C(C)Nc2nc(C)nc3cc(OC)c(OC)cc23)c1, the IC50 reads like this: (second compound 0.1 µM) more than 10 µM; (second compound 0.316 µM) less than 0.0316 µM; (second compound 1 µM) less than 0.0316 µM; (second compound 3.16 µM) less than 0.0316 µM; (second compound 10 µM) less than 0.0316 µM. Also, the viability, T/C runs as follows: (second compound 0.1 µM, first compound 0.0316 µM) 59%; (second compound 0.1 µM, first compound 0.1 µM) 65.2%; (second compound 0.1 µM, first compound 0.316 µM) 53.3%; (second compound 0.1 µM, first compound 1 µM) 54.6%; (second compound 0.1 µM, first compound 3.16 µM) 65.6%; (second compound 0.1 µM, first compound 10 µM) 67.8%. Also, the viability, T/C reads like this: (second compound 0.316 µM, first compound 0.0316 µM) 47.1%; (second compound 0.316 µM, first compound 0.1 µM) 45.5%; (second compound 0.316 µM, first compound 0.316 µM) 52.7%; (second compound 0.316 µM, first compound 1 µM) 55.1%; (second compound 0.316 µM, first compound 3.16 µM) 51.4%; (second compound 0.316 µM, first compound 10 µM) 67%. In addition, the viability, T/C (second compound 1 µM, first compound 0.0316 µM) was 40.2%; the viability, T/C (second compound 1 µM, first compound 0.1 µM) was 48%; the viability, T/C (second compound 1 µM, first compound 0.316 µM) is 47.3%; the viability, T/C (second compound 1 µM, first compound 1 µM) is 51.7%; the viability, T/C (second compound 1 µM, first compound 3.16 µM) was 49.8%; the viability, T/C (second compound 1 µM, first compound 10 µM) was 58.5%. The viability, T/C is, setting by setting: (second compound 3.16 µM, first compound 0.0316 µM) 0.61%; (second compound 3.16 µM, first compound 0.1 µM) 1.87%; (second compound 3.16 µM, first compound 0.316 µM) 0.81%; (second compound 3.16 µM, first compound 1 µM) 0.22%; (second compound 3.16 µM, first compound 3.16 µM) 2.29%; (second compound 3.16 µM, first compound 10 µM) 0.22%. Further, the viability, T/C was 0.42% (second compound 10 µM, first compound 0.0316 µM); 0.09% (second compound 10 µM, first compound 0.1 µM); 0.09% (second compound 10 µM, first compound 0.316 µM); 0.09% (second compound 10 µM, first compound 1 µM); 0.2% (second compound 10 µM, first compound 3.16 µM); 0.14% (second compound 10 µM, first compound 10 µM).

Usually viability, T/C stands for the ratio of treated to control. One may read the IC50 as the midpoint of a concentration-inhibition curve.
